Each block holds one compound with its values, some of them ahead of it. Calls of active or inactive are those of the source.
Tests used:
[1] = target: Mast/stem cell growth factor receptor Kit (Homo sapiens, UniProt P10721); format: functional;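 further: KIT entry within a kinase panel assay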
SRSF protein kinase 1 = SRSF protein kinase 1 (Homo sapiens, UniProt Q96SB4); format: functional;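 further: measured as one member of a kinome-wide kinase profiling panel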
[2] = target: Protein kinase C zeta type (Homo sapiens, UniProt Q05513); format: functional;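 further: measured as one member of a broad kinase profiling panel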
[3] = target: Serine/threonine-protein kinase pim-3 (Homo sapiens, UniProt Q86V86); format: functional;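 further: value obtained as one member of a broad kinase panel profiling effort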
Insulin receptor = Insulin receptor (Homo sapiens, UniProt P06213); format: functional;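 further: insulin receptor kinase tested as one member of a kinome-wide kinase panel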
[4] = target: Proto-oncogene tyrosine-protein kinase Src (Homo sapiens, UniProt P12931); format: functional;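 further: SRC entry within a kinome-wide kinase profiling panel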
[5] = target: Protein kinase C delta type (Homo sapiens, UniProt Q05655); format: functional
[6] = target: Calcium/calmodulin-dependent protein kinase type II subunit gamma (Homo sapiens, UniProt Q13555); format: functional
[7] = target: Tyrosine-protein kinase Fer (Homo sapiens, UniProt P16591); format: functional;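 further: FER tested as one member of a kinome panel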
[8] = target: Serine/threonine-protein kinase D2 (Homo sapiens, UniProt Q9BZL6); format: functional;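 further: measured against PRKD2 as one member of a kinome-wide kinase profiling panel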
[9] = target: Interleukin-1 receptor-associated kinase 1 (Homo sapiens, UniProt P51617); format: functional;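 further: IRAK1 tested as one member of a kinome panel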
cells = format: functional, cell-based
[10] = target: T1, Histone-lysine N-methyltransferase NSD2 (Homo sapiens, UniProt O96028); format: biochemical
T1 sequence (O96028 whole entry): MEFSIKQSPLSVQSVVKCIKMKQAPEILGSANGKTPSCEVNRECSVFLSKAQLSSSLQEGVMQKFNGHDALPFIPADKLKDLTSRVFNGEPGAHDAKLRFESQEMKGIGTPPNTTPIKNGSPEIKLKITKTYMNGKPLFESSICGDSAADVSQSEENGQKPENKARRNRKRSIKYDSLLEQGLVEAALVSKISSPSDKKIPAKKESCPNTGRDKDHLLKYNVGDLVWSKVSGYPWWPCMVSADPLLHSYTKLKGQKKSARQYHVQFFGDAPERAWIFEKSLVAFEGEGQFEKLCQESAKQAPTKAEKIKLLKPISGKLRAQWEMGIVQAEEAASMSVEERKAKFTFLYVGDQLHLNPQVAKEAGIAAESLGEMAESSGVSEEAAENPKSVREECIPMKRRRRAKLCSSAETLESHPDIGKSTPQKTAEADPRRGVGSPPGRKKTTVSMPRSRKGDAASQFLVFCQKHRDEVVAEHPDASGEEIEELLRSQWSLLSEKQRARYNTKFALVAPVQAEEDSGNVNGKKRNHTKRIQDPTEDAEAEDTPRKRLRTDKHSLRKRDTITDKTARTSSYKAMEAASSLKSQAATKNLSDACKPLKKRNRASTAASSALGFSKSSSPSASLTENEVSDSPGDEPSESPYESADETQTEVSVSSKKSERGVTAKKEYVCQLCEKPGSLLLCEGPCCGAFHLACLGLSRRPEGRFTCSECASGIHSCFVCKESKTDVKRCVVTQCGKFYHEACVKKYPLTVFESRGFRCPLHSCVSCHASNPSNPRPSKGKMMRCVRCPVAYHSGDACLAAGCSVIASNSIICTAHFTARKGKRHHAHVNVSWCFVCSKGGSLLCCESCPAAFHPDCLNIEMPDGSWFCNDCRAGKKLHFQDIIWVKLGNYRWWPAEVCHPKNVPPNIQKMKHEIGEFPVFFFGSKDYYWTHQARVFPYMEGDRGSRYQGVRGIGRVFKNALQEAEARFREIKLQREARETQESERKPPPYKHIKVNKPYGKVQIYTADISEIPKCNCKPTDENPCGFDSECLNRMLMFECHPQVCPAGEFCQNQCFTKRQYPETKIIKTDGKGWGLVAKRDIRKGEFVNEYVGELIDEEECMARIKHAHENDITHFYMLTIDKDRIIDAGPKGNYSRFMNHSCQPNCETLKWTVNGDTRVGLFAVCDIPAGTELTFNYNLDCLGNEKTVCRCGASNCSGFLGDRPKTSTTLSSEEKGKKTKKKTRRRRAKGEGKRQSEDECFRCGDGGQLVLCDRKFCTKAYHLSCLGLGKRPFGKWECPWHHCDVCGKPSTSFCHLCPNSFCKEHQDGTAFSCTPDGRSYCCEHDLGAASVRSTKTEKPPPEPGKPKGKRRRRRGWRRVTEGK

[11] = target: T2, Sentrin-specific protease 7 (Homo sapiens, UniProt Q9BQF6); format: functional;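 further: Luminescence-based dose-response confirmation of ultra-high-throughput screening hits, measuring inhibition of SENP7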
T2 sequence (Q9BQF6 whole entry): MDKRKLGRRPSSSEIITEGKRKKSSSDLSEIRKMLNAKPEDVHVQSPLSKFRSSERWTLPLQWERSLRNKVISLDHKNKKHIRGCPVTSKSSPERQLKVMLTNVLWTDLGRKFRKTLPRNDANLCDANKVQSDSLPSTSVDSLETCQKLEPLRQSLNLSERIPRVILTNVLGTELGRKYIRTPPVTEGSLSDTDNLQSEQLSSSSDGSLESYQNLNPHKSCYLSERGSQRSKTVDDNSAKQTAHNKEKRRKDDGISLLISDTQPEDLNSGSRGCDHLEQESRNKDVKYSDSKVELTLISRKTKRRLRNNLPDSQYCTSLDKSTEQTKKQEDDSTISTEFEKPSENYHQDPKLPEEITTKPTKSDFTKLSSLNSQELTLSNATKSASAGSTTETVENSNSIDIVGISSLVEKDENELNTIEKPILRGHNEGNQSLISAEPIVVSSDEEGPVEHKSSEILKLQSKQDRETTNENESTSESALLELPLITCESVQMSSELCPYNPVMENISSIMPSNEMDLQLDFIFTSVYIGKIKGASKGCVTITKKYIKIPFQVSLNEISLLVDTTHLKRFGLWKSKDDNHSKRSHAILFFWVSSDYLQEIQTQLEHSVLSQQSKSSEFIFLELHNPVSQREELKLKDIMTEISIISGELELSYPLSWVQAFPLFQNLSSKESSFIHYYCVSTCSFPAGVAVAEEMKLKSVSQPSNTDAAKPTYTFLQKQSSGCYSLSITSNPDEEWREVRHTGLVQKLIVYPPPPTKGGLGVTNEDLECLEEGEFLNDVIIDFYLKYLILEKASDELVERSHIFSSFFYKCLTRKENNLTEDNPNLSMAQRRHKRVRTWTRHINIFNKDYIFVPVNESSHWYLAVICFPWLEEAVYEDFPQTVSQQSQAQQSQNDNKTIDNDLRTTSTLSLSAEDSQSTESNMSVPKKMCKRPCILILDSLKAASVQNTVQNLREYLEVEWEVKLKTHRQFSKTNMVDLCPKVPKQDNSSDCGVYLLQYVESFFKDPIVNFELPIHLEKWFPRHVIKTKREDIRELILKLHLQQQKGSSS

Sequence of Calcium/calmodulin-dependent protein kinase type II subunit gamma (Q13555 whole entry): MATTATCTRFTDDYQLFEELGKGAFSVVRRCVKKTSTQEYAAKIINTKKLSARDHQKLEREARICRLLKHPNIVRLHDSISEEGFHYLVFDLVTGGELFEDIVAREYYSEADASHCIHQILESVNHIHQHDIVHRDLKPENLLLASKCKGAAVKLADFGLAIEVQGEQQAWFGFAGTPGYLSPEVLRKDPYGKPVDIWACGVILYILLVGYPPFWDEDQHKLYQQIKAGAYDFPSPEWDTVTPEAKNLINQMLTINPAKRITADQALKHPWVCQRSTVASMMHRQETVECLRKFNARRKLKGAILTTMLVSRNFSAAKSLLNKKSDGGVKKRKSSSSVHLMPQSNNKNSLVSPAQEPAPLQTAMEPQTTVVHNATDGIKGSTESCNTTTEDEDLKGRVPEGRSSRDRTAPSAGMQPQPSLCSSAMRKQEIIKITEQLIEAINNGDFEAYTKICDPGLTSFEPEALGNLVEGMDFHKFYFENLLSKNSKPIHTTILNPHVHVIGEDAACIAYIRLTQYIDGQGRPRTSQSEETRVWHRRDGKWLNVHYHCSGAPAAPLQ
Sequence of SRSF protein kinase 1 (Q96SB4 whole entry): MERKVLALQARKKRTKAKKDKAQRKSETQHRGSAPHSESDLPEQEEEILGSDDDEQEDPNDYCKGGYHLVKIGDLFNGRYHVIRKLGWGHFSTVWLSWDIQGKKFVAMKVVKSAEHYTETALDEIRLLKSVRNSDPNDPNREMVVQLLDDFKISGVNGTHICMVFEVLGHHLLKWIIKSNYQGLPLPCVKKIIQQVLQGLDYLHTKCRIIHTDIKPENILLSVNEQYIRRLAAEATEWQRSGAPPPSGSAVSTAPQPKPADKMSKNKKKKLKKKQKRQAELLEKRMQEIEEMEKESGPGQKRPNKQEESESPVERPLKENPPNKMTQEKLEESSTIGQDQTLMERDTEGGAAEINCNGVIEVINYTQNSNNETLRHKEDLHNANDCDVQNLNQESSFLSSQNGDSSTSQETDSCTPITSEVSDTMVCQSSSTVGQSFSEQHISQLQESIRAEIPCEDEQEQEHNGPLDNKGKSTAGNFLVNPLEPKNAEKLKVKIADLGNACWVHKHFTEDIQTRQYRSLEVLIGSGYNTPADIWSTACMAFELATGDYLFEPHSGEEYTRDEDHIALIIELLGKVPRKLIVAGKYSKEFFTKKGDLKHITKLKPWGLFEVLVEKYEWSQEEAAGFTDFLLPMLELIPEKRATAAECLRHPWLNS
Sequence of Protein kinase C delta type (Q05655 whole entry): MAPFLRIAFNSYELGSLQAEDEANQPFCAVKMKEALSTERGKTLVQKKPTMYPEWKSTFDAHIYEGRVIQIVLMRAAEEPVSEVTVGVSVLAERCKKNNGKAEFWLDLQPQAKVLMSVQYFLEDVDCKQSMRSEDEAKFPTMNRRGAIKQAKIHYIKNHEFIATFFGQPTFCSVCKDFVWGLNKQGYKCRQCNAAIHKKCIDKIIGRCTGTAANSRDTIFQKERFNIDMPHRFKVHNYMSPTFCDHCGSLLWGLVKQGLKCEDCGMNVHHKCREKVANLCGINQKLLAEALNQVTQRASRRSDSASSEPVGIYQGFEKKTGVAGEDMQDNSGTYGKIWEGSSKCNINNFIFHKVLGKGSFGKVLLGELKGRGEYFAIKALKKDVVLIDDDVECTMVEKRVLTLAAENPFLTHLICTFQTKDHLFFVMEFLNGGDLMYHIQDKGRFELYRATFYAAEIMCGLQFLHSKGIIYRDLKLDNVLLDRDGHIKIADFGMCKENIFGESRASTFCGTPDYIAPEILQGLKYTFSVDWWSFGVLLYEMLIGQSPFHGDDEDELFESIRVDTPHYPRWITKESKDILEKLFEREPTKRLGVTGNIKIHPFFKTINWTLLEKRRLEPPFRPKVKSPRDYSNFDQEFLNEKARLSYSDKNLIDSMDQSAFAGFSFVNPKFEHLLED
Sequence of Proto-oncogene tyrosine-protein kinase Src (P12931 2-536 limits assumed): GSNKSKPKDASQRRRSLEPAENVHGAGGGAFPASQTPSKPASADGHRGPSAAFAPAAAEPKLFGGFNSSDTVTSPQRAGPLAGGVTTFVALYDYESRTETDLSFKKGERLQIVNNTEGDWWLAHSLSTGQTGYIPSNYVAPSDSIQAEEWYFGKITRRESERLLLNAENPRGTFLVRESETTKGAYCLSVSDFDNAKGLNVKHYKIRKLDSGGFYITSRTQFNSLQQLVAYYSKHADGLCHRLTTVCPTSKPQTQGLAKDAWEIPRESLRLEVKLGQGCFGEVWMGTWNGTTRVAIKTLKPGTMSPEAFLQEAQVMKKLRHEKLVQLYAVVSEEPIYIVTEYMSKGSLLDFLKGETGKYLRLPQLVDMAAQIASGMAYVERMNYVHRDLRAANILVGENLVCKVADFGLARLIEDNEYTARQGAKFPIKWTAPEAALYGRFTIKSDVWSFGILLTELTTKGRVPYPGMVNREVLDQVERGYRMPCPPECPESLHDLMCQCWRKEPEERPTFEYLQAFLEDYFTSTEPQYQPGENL
Sequence of Serine/threonine-protein kinase D2 (Q9BZL6 whole entry): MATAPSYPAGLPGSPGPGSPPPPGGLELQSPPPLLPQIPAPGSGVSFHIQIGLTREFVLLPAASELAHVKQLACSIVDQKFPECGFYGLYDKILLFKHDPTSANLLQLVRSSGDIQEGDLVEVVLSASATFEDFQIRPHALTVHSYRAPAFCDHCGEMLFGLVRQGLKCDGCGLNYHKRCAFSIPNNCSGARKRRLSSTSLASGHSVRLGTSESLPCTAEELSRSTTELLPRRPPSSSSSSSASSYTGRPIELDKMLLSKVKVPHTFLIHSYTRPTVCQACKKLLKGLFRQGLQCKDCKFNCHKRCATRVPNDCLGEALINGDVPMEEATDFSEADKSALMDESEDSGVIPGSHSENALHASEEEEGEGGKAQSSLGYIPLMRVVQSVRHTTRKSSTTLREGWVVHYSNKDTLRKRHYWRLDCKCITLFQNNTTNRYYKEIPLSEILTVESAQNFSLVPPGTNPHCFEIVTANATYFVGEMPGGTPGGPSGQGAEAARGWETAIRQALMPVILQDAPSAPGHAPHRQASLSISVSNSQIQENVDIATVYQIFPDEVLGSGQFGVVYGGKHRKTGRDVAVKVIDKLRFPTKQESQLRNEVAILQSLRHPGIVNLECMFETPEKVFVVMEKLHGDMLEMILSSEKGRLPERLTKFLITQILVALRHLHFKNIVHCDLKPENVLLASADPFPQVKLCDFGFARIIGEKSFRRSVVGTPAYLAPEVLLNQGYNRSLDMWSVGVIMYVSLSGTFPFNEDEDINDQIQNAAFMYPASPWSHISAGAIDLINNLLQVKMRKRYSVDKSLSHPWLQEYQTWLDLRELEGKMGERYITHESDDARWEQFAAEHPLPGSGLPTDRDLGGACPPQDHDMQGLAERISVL
Sequence of Insulin receptor (P06213 28-758 limits assumed): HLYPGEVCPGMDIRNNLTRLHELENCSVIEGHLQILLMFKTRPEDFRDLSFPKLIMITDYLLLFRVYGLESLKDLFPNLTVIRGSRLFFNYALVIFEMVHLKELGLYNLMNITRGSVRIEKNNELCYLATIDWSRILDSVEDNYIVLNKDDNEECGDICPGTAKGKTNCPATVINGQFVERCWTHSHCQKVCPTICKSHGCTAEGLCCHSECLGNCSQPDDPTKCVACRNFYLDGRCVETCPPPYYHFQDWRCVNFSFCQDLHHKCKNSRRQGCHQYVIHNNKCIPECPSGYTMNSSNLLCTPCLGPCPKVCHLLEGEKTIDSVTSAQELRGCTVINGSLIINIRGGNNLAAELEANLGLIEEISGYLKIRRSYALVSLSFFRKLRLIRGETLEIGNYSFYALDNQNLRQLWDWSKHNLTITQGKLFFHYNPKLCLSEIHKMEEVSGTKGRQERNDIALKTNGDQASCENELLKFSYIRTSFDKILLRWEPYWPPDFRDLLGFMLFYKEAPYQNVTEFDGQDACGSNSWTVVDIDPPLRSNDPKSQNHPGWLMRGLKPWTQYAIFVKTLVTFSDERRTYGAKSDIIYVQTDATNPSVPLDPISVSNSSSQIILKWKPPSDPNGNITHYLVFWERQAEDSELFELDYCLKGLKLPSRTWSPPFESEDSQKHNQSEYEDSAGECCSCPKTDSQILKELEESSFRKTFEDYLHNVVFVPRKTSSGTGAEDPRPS
Sequence of Insulin receptor (P06213 763-1382 limits assumed): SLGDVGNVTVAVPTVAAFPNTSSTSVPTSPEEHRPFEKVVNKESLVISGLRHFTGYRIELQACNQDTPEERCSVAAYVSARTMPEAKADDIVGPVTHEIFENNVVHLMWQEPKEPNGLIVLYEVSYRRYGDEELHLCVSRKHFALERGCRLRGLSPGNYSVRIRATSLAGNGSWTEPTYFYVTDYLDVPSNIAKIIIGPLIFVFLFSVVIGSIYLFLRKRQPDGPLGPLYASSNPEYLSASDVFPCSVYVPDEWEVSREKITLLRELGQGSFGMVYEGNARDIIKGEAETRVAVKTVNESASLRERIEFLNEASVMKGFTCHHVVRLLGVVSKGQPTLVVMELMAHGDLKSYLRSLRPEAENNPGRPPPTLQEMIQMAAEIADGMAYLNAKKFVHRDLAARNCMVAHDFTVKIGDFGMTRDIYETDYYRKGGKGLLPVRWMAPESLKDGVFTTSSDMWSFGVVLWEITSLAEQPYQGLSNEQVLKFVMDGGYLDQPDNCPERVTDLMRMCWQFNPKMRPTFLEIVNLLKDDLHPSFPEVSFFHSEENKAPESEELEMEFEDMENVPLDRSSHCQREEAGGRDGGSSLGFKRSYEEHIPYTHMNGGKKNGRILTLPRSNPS

Ki [1]: 251 nM (active) | Ki (SRSF protein kinase 1): 200 nM (active) | Ki [2]: > 7940 nM (inactive) | Ki [3]: 2510 nM (active) | Ki (Insulin receptor): > 5010 nM (inactive) | Ki [4]: 1260 nM (active) | Ki [5]: > 7940 nM (inactive) | Ki [6]: 251 nM (active) | Ki [7]: > 1580 nM (inactive) | Ki [8]: 200 nM (active) | Ki [9]: 158 nM (active)
SMILES: CS(=O)(=O)N(Cc1ccc2[nH]c(=O)c3cccn3c2c1)C1CC1

SMILES: Cc1cc(NC(c2ccc(Cl)cc2)c2ccc3cccnc3c2O)no1 (centres undefined)
EC50 (cells): 6450 nM (active)

SMILES: OCC[n+]1c2ccccc2nc2ccc(N3CCOCC3)cc21
AC50 [10]: 6780 nM (active) | IC50 [11]: 28000 nM (active)
